In patent publication US8178523B2, “Compounds for the treatment of hepatitis C” (Bristol-Myers Squibb Company, priority 2008, dated 2012):

What was measured:
[1] = molecular target: T1, HCV NS5B RdRp (Hepatitis C virus genotype 1b, UniProt Q9WMX2); experiment: HCV NS5B RdRp enzyme assay; format: biochemical; settings: HCV NS5B genotype 1b, standard or modified RdRp assay not given
T1 construct: The protein was expressed with an 18 amino acid C-terminal truncation to enhance the solubility; made in house; host or cells: E. coli BL21(DE3)
T1 sequence (Q9WMX2 2420-2992): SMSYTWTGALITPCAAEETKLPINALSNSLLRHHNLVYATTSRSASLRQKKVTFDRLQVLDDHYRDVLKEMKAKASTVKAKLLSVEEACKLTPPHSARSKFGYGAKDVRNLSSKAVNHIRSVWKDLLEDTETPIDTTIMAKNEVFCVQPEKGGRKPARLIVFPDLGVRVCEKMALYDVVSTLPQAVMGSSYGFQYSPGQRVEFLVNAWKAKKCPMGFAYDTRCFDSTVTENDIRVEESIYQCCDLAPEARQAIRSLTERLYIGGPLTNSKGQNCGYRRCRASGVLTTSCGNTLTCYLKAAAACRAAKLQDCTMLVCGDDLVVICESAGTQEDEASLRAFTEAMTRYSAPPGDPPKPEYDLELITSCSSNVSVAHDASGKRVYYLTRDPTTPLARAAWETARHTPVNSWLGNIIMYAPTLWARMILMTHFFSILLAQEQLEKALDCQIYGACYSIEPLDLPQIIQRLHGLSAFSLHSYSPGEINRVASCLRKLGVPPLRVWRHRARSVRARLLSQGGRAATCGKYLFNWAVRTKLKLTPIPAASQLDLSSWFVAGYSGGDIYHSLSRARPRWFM
Procedure: HCV NS5B RdRp cloning, expression, and purification. The cDNA encoding the NS5B protein of HCV, genotype 1b, was cloned into the pET21a expression vector. The protein was expressed with an 18 amino acid C-terminal truncation to enhance the solubility. The E. coli competent cell line BL21(DE3) was used for expression of the protein. Cultures were grown at 37° C. for ˜4 hours until the cultures reached an optical density of 2.0 at 600 nm. The cultures were cooled to 20° C. and induced with 1 mM […]. Fresh ampicillin was added to a final concentration of 50 μg/ml and the cells were grown overnight at 20° C.
Cell pellets (3 L) were lysed for purification to yield 15-24 mgs of purified NS5B. The lysis buffer consisted of 20 mM Tris-HCl, pH 7.4, 500 mM NaCl, 0.5% triton X-100, 1 mM DTT, 1 mM EDTA, 20% glycerol, 0.5 mg/ml lysozyme, 10 mM MgCl2, 15 ug/ml deoxyribonuclease I, and Complete TM protease inhibitor tablets (Roche). After addition of the lysis buffer, frozen cell pellets were resuspended using a tissue homogenizer. To reduce the viscosity of the sample, aliquots of the lysate were sonicated on ice using a microtip attached to a Branson sonicator. The sonicated lysate was centrifuged at 100,000×g for 1 hr at 4° C. and filtered through a 0.2 μm filter unit (Corning).
The protein was purified using two sequential chromatography steps: Heparin sepharose CL-6B and polyU sepharose 4B (Pharmacia). The chromatography buffers were identical to the lysis buffer but contained no lysozyme, deoxyribonuclease I, MgCl2 or protease inhibitor and the NaCl concentration of the buffer was adjusted according to the requirements for charging the protein onto the column. Each column was eluted with a NaCl gradient which varied in length from 5-50 column volumes depending on the column type. After the final chromatography step, the resulting purity of the enzyme is >90% based on SDS-PAGE analysis. The enzyme was aliquoted and stored at −80° C.
Standard HCV NS5B RdRp enzyme assay. HCV RdRp genotype 1b assays were run in a final volume of 60 μl in 96 well plates (Corning 3600). The assay buffer is composed of 20 mM Hepes, pH 7.5, 2.5 mM KCl, 2.5 mM MgCl2, 1 mM DTT, 1.6 U RNAse inhibitor (Promega N2515), 0.01 mg/ml BSA (Sigma B6917), and 2% glycerol. All compounds were serially diluted (3-fold) in DMSO and diluted further in water such that the final concentration of DMSO in the assay was 2%. HCV RdRp genotype 1b enzyme was used at a final concentration of 28 nM. A polyA template was used at 6 nM, and a biotinylated oligo-dT12 primer was used at 180 nM final concentration. Template was obtained commercially (Amersham 27-4110). Biotinylated primer was prepared by Sigma Genosys. 3H-UTP was used at (0.29 μM total UTP). Reactions were initiated by the addition of enzyme, incubated at 30° C. for 60 min, and stopped by adding 25 μl of 50 mM EDTA containing SPA beads (4 μg/μl, Amersham RPNQ 0007). Plates were read on a Packard Top Count NXT after >1 hr incubation at room temperature.
Modified HCV NS5B RdRp enzyme assay. A modified enzyme assay was performed essentially as described for the standard enzyme assay except for the following: The biotinylated oligo dT12 primer was precaptured on streptavidin-coated SPA beads by mixing primer and beads in assay buffer and incubating at room temperature for one hour. Unbound primer was removed after centrifugation. The primer-bound beads were resuspended in 20 mM Hepes buffer, pH 7.5 and used in the assay at final concentrations of 20 nM primer and […] beads. Order of addition in the assay: enzyme (1.75 nM) was added to diluted compound followed by the addition of a mixture of template (0.36 nM), 3H-UTP (0.6 μCi, 0.29 μM), and primer-bound beads, to initiate the reaction; concentrations given are final. Reactions were allowed to proceed for 4 hours at 30° C.
IC50 values for compounds were determined using seven different [I]. […]

[2] = test system: HCV replicon cells; experiment: HCV replicon FRET / luciferase assay; format: cell-based; settings: Hepatitis C virus, 50% reduction in FRET or luciferase activity
Procedure: FRET Assay Preparation. The HCV FRET screening assay was performed in 96-well cell culture plates. The FRET peptide (Anaspec, Inc.) (Taliani et al., Anal. Biochem. 1996, 240, 60-67) contains a fluorescence donor, EDANS, near one end of the peptide and an acceptor, DABCYL, near the other end. The fluorescence of the peptide is quenched by […] resonance energy transfer (RET) between the donor and the acceptor, but as the NS3 protease cleaves the peptide the products are released from RET quenching and the fluorescence of the donor becomes apparent. The assay reagent was made as follows: 5× cell Luciferase cell culture lysis reagent from Promega (#E153A) diluted to 1× with dH2O, NaCl added to 150 mM final, the FRET peptide diluted to 20 μM final from a 2 mM stock.
To prepare plates, HCV replicon cells, with or without a Renilla luciferase reporter gene, were trypsinized and plated in a 96-well plate with titrated test compounds added in columns 3 through 12; columns 1 and 2 contained a control compound (HCV control inhibitor), and the bottom row contained cells with DMSO only. The plates were then placed in a CO2 incubator at 37° C.
Assays. Subsequent to addition of the test compounds described above (FRET Assay Preparation), at various times the plate was removed and Alamar blue solution (Trek Diagnostics, #00-100) was added to measure cellular toxicity. After reading in a Cytoflour 4000 instrument (PE Biosystems), plates were rinsed with PBS and then used for FRET assay by the addition of 30 ul of the FRET peptide assay reagent described above (FRET Assay Preparation) per well. The plate was then placed into the Cytoflour 4000 instrument which had been set to 340 excite/490 emission, automatic mode for up to 20 cycles and the plate read in a kinetic mode. Typically, the signal to noise using an endpoint analysis after the reads was at least three-fold. Alternatively, after Alamar blue reading, plates were rinsed with PBS, then used for luciferase assay using the Promega Dual-Glo Luciferase Assay System or the Promega EnduRen Live Cell Substrate assay.
Compound analysis was performed by quantification of the relative HCV replicon inhibition and the relative cytotoxicity values. To calculate cytoxicity values, the average Alamar Blue fluorescence signals from the control wells were set as 100% non-toxic. The individual signals in each of the compound test wells were then divided by the average control signal and multiplied by 100% to determine […]. To calculate the HCV replicon inhibition values, an average background value was obtained from the two wells containing the highest amount of HCV control inhibitor at the end of the assay period. These numbers were similar to those obtained from naïve Huh-7 cells. The background numbers were then subtracted from the average signal obtained from the control wells and this number was used as 100% activity. The individual signals in each of the compound test wells were then divided by the averaged control values after background subtraction and multiplied by 100% to determine percent activity. EC50 values were calculated as the concentration which caused a 50% reduction in FRET or luciferase activity. The two numbers generated for the compound plate, percent cytoxicity and percent activity, were used to determine compounds of interest for further analysis.

Structure (SMILES)	IC50 ([1]; class symbols) [nM]	EC50 ([2]; class symbols) [nM]	IC50 ([1]; numeric values) [nM]	EC50 ([2]; numeric values) [nM]
COc1ccc2c(c1)C1CC1(C(=O)N1CCCCC1c1nc(C(C)C)no1)Cn1c-2c(C2CCCCC2)c2ccc(C(=O)NS(=O)(=O)N(C)C)cc21 (stereo not shown)	2 to 500	2 to 500	–	–
COc1ccc2c(c1)C=C(C(=O)N1CCCCC1c1nc(C(C)C)no1)Cn1c-2c(C2CCCCC2)c2ccc(C(=O)NS(=O)(=O)N(C)C)cc21 (stereo not shown)	–	–	150	1000
COc1ccc2c(c1)C1CC1(C(=O)N1CCC(c3nc(C)no3)CC1)Cn1c-2c(C2CCCCC2)c2ccc(C(=O)NS(=O)(=O)N(C)C)cc21 (stereo not shown)	–	–	30	90
COc1ccc2c(c1)C=C(C(=O)N1CCC(c3nc(C)no3)CC1)Cn1c-2c(C2CCCCC2)c2ccc(C(=O)NS(=O)(=O)N(C)C)cc21	–	–	90	230
COc1ccc2c(c1)C1CC1(C(=O)N1CCC(c3nncn3C)CC1)Cn1c-2c(C2CCCCC2)c2ccc(C(=O)NS(=O)(=O)N(C)C)cc21 (stereo not shown)	2 to 500	2 to 500	–	–
COc1ccc2c(c1)C=C(C(=O)N1CCC(c3nncn3C)CC1)Cn1c-2c(C2CCCCC2)c2ccc(C(=O)NS(=O)(=O)N(C)C)cc21	2 to 500	2 to 500	–	–
COc1ccc2c(c1)C1CC1(C(=O)N1CCC(c3nc(C)no3)CC1)Cn1c-2c(C2CCCCC2)c2ccc(C(=O)NS(=O)(=O)C(C)C)cc21 (stereo not shown)	–	–	30	100
COc1ccc2c(c1)C1CC1(C(=O)N1CCC(c3nnc(N)s3)CC1)Cn1c-2c(C2CCCCC2)c2ccc(C(=O)NS(=O)(=O)N(C)C)cc21 (stereo not shown)	–	–	60	190
COc1ccc2c(c1)C1CC1(C(=O)N1CCC(c3nnc(C)o3)CC1)Cn1c-2c(C2CCCCC2)c2ccc(C(=O)NS(=O)(=O)N(C)C)cc21 (stereo not shown)	–	–	20	50
COc1ccc2c(c1)C1CC1(C(=O)N1CCC(n3c(C)nnc3C)CC1)Cn1c-2c(C2CCCCC2)c2ccc(C(=O)NS(=O)(=O)N(C)C)cc21 (stereo not shown)	2 to 500	2 to 500	–	–
COc1ccc2c(c1)C1CC1(C(=O)N1CCC(c3nnc(C)o3)CC1)Cn1c-2c(C2CCCCC2)c2ccc(C(=O)NS(=O)(=O)C(C)C)cc21 (stereo not shown)	–	–	70	110
COc1ccc2c(c1)C1CC1(C(=O)N1CCC(c3nnc(-c4ccccc4)o3)CC1)Cn1c-2c(C2CCCCC2)c2ccc(C(=O)NS(=O)(=O)N(C)C)cc21 (stereo not shown)	2 to 500	2 to 500	–	–
COc1ccc2c(c1)C1CC1(C(=O)N1CCC(c3nc4ccccc4o3)CC1)Cn1c-2c(C2CCCCC2)c2ccc(C(=O)NS(=O)(=O)N(C)C)cc21 (stereo not shown)	2 to 500	2 to 500	–	–
COc1ccc2c(c1)C1CC1(C(=O)N1CCC(c3noc4cc(F)ccc34)CC1)Cn1c-2c(C2CCCCC2)c2ccc(C(=O)N[S+]([O-])N(C)C)cc21 (stereo not shown)	2 to 500	2 to 500	–	–
COc1ccc2c(c1)C1CC1(C(=O)N1CCC(c3cc(-c4ccco4)n[nH]3)CC1)Cn1c-2c(C2CCCCC2)c2ccc(C(=O)NS(=O)(=O)N(C)C)cc21 (stereo not shown)	2 to 500	2 to 500	–	–
COc1ccc2c(c1)C1CC1(C(=O)N1CCC(c3nc4cc(C)ccc4[nH]3)CC1)Cn1c-2c(C2CCCCC2)c2ccc(C(=O)NS(=O)(=O)N(C)C)cc21 (stereo not shown)	2 to 500	2 to 500	–	–
COc1ccc(-c2cnn(C3CCN(C(=O)C45CC4c4cc(OC)ccc4-c4c(C6CCCCC6)c6ccc(C(=O)NS(=O)(=O)N(C)C)cc6n4C5)CC3)c2)cc1 (stereo not shown)	2 to 500	2 to 500	–	–
COc1ccc2c(c1)C1CC1(C(=O)N1CCC(n3cc(-c4ccc(Cl)cc4)cn3)CC1)Cn1c-2c(C2CCCCC2)c2ccc(C(=O)NS(=O)(=O)N(C)C)cc21 (stereo not shown)	2 to 500	2 to 500	–	–
COc1ccc2c(c1)C1CC1(C(=O)N1CCC(n3cc(-c4ccccc4)cn3)CC1)Cn1c-2c(C2CCCCC2)c2ccc(C(=O)NS(=O)(=O)N(C)C)cc21 (stereo not shown)	2 to 500	2 to 500	–	–
COc1ccc2c(c1)C1CC1(C(=O)N1CCC(n3cc(-c4ccccc4Cl)cn3)CC1)Cn1c-2c(C2CCCCC2)c2ccc(C(=O)NS(=O)(=O)N(C)C)cc21 (stereo not shown)	2 to 500	2 to 500	–	–
CCCc1noc(C2CCN(C(=O)C34CC3c3cc(OC)ccc3-c3c(C5CCCCC5)c5ccc(C(=O)NS(=O)(=O)N(C)C)cc5n3C4)CC2)n1 (stereo not shown)	2 to 500	2 to 500	–	–
CCOC(=O)c1coc(C2CCN(C(=O)C34CC3c3cc(OC)ccc3-c3c(C5CCCCC5)c5ccc(C(=O)NS(=O)(=O)N(C)C)cc5n3C4)CC2)n1 (stereo not shown)	2 to 500	2 to 500	–	–
CCc1nnc(C2CCN(C(=O)C34CC3c3cc(OC)ccc3-c3c(C5CCCCC5)c5ccc(C(=O)NS(=O)(=O)C(C)C)cc5n3C4)CC2)o1 (stereo not shown)	2 to 500	2 to 500	–	–
COc1ccc2c(c1)C1CC1(C(=O)N1CCC(c3cc4ccccc4o3)CC1)Cn1c-2c(C2CCCCC2)c2ccc(C(=O)NS(=O)(=O)C(C)C)cc21 (stereo not shown)	2 to 500	> 500	–	–
COc1ccc2c(c1)C1CC1(C(=O)N1CCC(c3c[nH]c4ccccc34)CC1)Cn1c-2c(C2CCCCC2)c2ccc(C(=O)NS(=O)(=O)C(C)C)cc21 (stereo not shown)	2 to 500	2 to 500	–	–
COc1ccc2c(c1)C1CC1(C(=O)N1CCC(c3nnc(C(C)C)o3)CC1)Cn1c-2c(C2CCCCC2)c2ccc(C(=O)NS(=O)(=O)C(C)C)cc21 (stereo not shown)	2 to 500	2 to 500	–	–
